Laboratory results from patent US20020040062A1, “Protein kinase C activators and their use in decreasing expression of cell antigens” (The Trustees of Columbia University, priority 1993, published 2002).
Read-outs that look alike come from different tables or passages of the source. Marks after values point to notes of the source that are not given here.

Columns and labels:
T47D cells [1] = assay: T47D cell growth assay (Coulter Counter); format: cell-based, human; details: for effect on 72 hr growth: 0.1 μg/ml, FIG. 1
Experimental: FIG. 1: Effect of H-7, TPA, MEZ and ADMB on T47D cell growth and DNA synthesis. Cell growth assays are presented in (A). T47D cells were seeded at 1×10^4 cells/35 mm tissue culture plate, the medium was changed with the indicated compounds 24 hr later and cell numbers were determined after an additional 72 hr growth at 37° C. by Coulter Counter. Results are the average of triplicate samples/experimental condition which varied by ≦10%. DNA synthesis assays are presented in (B). T47 D cells were seeded at 1.25×10^4 cells in 0.2 ml of media in 96 microtiter plates. Every 24 hr, cultures received 1 μCi of methyl-^3H-thymidine and 8 hr later cells were harvested and TCA precipitable counts were determined. Results are the average from replicate samples exposed to the indicated compounds for 72 hr. Replicate samples varied by ≦10% and replicate studies varied by ≦15%. Further details can be found in “Detailed Description Of The Invention”.
T47D cells were seeded at 5×10^3 cells/ml in 35 mm tissue culture plates and 24 hr later the medium was changed with the indicated compounds. Seventy-two hr later the cells were resuspended in trysin/versene (0.125%/0.02%, w/w) and counted using a ZM Coulter Counter (Coulter Electronics). For ^3H-thymidine incorporation studies, T47D cells were seeded at 1.25×10^4 cells in 0.2 ml of media in 96 well microtiter plates. Every 24 hr, plates received 1 μCi of methyl-^3H-thymidine (specific activity […]) (ICN Radiochemicals, Irvine, Calif.), cells were harvested 8 hr after the addition of labeled thymidine and TCA precipitable counts were determined using a Packard scintillation counter. Replicate samples varied by ≦10% and replicate studies varied by ≦15%.

[2] = tested on: HLA Class II-DRβ antigen mRNA; assay: Northern blotting, steady-state HLA Class II-DRβ mRNA in T47D cells; format: cell-based, human; details: 72 hr, 500 units/ml IFN-α or IFN-β, 50 units/ml IFN-γ, 0.1 μg/ml TPA, MEZ or ADMB, densitometry
Experimental: (§1) FIG. 3: Effect of interferon, ADMB, TPA and MEZ, alone and in combination with H-7, on steady-state mRNA levels of HLA Class I antigens, HLA Class II-DRβ antigen, c-erbB-2, ICAM-1 and GAPDH in T47D human breast carcinoma cells. […] Cultures were also grown in the presence of 0.1 μg/ml of H-7 for 72 hr with and without the additional compounds indicated above. Total cytoplasmic RNA was isolated and processed as described in “Detailed Description Of The Invention.” Control: CON; recombinant human leukocyte interferon-A: IFN-αA; recombinant human fibroblast interferon: IFN-β; recombinant human immune interferon: IFN-γ; ADMB; 3-(N-acetylamino)-5-(N-decyl-N-methylamino)-benzyl alcohol; TPA; 12-0-tetradecanoyl-phorbol-13-acetate; MEZ; mezerein; H-7: (1-(5-isoquinolinesulfonyl)-2-methylpiperazine dihydrochloride.
(§2) Steady-state levels of HLA Class I, HLA Class II-DRβ, c-erbB-2 and ICAM-I mRNA in control and treated T47D cells were determined by Northern blotting analysis of total cytoplasmic RNA probed with appropriate ^32P-labeled gene probes as previously described. Northern blots were also probed with a ^32P-labeled glyceraldehyde phosphate dehydrogenase (GAPDH) gene probe to verify equal […] under various experimental conditions. Following hybridization, the filters were washed and exposed for autoradiography.

MoAb K56 [3] = assay: FACS analysis of MoAb K56 binding in WiDr human colon carcinoma cells; format: cell-based
Experimental: Cells were plated in 10 cm plates, media was changed 24 hours later with no addition (control) or addition of the indicated compounds and cells were incubated at 37° C. for the indicated time (72 or 96 hours). Cells were resuspended using 10× EDTA and antigen expression was determined as described (Leon, Mesa-Tejada, Gutierrez, Estabrook, Greiner, Schlom & Fisher: Anticancer Res. 9:1639-1648, 1989; Leon, Gutierrez, Jiang, Estabrook, Waxman & Fisher: Cancer Immunol. Immmunother. 35:315-324, 1992).

MoAb K56 [4] = assay: FACS analysis of MoAb K56 binding in CBS human colon carcinoma cells; format: cell-based; details: 96 hours
Experimental: (§3) Cells were plated in 10 cm plates, media was changed 24 hours later with no addition (control) or addition of the indicated compounds and cells were incubated at 37° C. for 96 hours. Cells were resuspended using 10× EDTA and antigen expression was determined as described (Leon, Mesa-Tejada, Gutierrez, Estabrook, Breiner, Schlom & Fisher: Anticancer Res. 9:1639-1648, 1989; Leon, Gutierrez, Jiang, Estabrook, Waxman & Fisher: Cancer Immuno. Immunother. 35:315-324 1992).

HLA-DR = assay: FACS analysis of HLA-DR (MoAb L243) in CBS human colon carcinoma cells; format: cell-based; details: 96 hours
Experimental: as §3

CA19.9 = assay: FACS analysis of CA19.9 (MoAb B67.4) in CBS human colon carcinoma cells; format: cell-based; details: 96 hours
Experimental: as §3

T47D cells [5] = assay: Dose-range and time-course of antigenic enhancement in T47D cells and effect of H-7; format: cell-based, human
Experimental: T47D cells treated with the various compounds were analyzed by flow cytometry using appropriate monoclonal antibody concentrations as described previously. Briefly, 1×10^5 cells were incubated with the test antibody for 30 min at 4° C., washed 3× with PBS and incubated with a goat a mouse F (ab)2 FITC conjugated test antibody at a 1:40 dilution for 30 min at 4° C. Cells were then washed 3× with PBS and analyzed on a FACStar (Beckon Dickinson, Mountain View, Calif.) or a Coulter Epics IV FACS (Coulter, Hialeah, Fla.). Results are expressed as mean fluorescence intensity (MFI) units which were determined as described previously. MFI=(mean channel fluorescence in fluorescence positive antibody-binding cells×% of fluorescence positive antibody-binding cells)−(mean channel fluorescence in unstained cells×% of fluorescence positive cells in the unstained population). All studies were performed a minimum of three or four times with duplicate samples in each experiment.

HLA Class I = assay: Northern blotting, steady-state HLA Class I mRNA in T47D cells; format: cell-based, human; details: 72 hr; for increase in HLA class I antigen mRNA levels: 500 units/ml IFN-α or IFN-β, 50 units/ml IFN-γ, 0.1 μg/ml TPA or MEZ, densitometry
Experimental: as §1, §2

[6] = T47D cells, preliminary studies, data not shown
[7] = 72 Hour Treatment, MEZ 100 ng/ml, IFN-γ 100 U/ml
[8] = 96 Hour Treatment, MEZ 100 ng/ml, IFN-γ 100 U/ml

For CCCCCCCCCCN(C)c1cc(CO)cc(NC(C)=O)c1 [ADMB, 3-(N-acetylamino)-5-(N-decyl-N-methylamino)-benzyl alcohol], the “effect on 72 hr growth” value (T47D cells [1]; T47D cells) was “only marginally altered”, the “increase in HLA Class II-DR antigen mRNA levels” value [2] was “did not increase” and the “Monoclonal Antibody Binding (MFI) MoAb K56” value (MoAb K56 [3]; 72 Hour Treatment, ADMB 0.01 μg/ml) was 844 MFI. For the same molecule, the “Monoclonal Antibody Binding (MFI) MoAb K56” value (MoAb K56 [3]; 72 Hour Treatment, ADMB 0.1 μg/ml) was 715 MFI, the “Monoclonal Antibody Binding (MFI) MoAb K56” value (MoAb K56 [3]; 72 Hour Treatment, ADMB 1.0 μg/ml) was 879 MFI and the “Monoclonal Antibody Binding (MFI) MoAb K56” value (MoAb K56 [3]; 96 Hour Treatment, ADMB 0.01 μg/ml) was 827 MFI. The “Monoclonal Antibody Binding (MFI) MoAb K56” value (MoAb K56 [3]; 96 Hour Treatment, ADMB 0.1 μg/ml) was 1116 MFI, the “Monoclonal Antibody Binding (MFI) MoAb K56” value (MoAb K56 [3]; 96 Hour Treatment, ADMB 1.0 μg/ml) was 1008 MFI and the “Monoclonal Antibody Binding (MFI) MoAb K56” value (MoAb K56 [4]; ADMB 0.01 μg/ml) was 2126 MFI. The “Monoclonal Antibody Binding (MFI) MoAb K56” value (MoAb K56 [4]; ADMB 0.1 μg/ml) was 1715 MFI, the “Monoclonal Antibody Binding (MFI) MoAb K56” value (MoAb K56 [4]; ADMB 1.0 g/ml) was 2420 MFI and the “Monoclonal Antibody Binding (MFI) MoAb L243 (HLA-DR)” value (HLA-DR; ADMB 0.01 μg/ml) was 4112 MFI. The “Monoclonal Antibody Binding (MFI) MoAb L243 (HLA-DR)” value (HLA-DR; ADMB 0.1 μg/ml) was 3328 MFI, the “Monoclonal Antibody Binding (MFI) MoAb L243 (HLA-DR)” value (HLA-DR; ADMB 1.0) was 6870* MFI and the “Monoclonal Antibody Binding (MFI) MoAb B67.4 (CA19.9)” value (CA19.9; ADMB 0.01 μg/ml) was 3562* MFI. The “Monoclonal Antibody Binding (MFI) MoAb B67.4 (CA19.9)” value (CA19.9; ADMB 0.1 μg/ml) was 3473* MFI, the “Monoclonal Antibody Binding (MFI) MoAb B67.4 (CA19.9)” value (CA19.9; ADMB 1.0 g/ml) was 3962* MFI and the “most effective dose inducing upregulation of BCA 225, HLA Class II antigens, ICAM-1 and c-erbB-2” value (T47D cells [5]; [6]) was 0.1 µg/mL.

CC1CNCCN1S(=O)(=O)c1cccc2cnccc12.Cl.Cl (stereo not shown) [H-7, 1-(5-isoquinolinesulfonyl)-2-methylpiperazine dihydrochloride] was tested, and the “alteration of HLA class I mRNA levels by H-7” value (HLA Class I; 0.1 μg/ml H-7) was no more than 1.2 fold, the “effect of H-7 on enhancement of BCA 225, HLA Class II antigens and ICAM-1 expression by IFN-β or IFN-γ” value (T47D cells [5]; T47D cells, 1.0 μg/ml H-7) was “did not inhibit” and the “effect of H-7 on increased antigenic expression induced by TPA, MEZ or ADMB” value (T47D cells [5]; T47D cells, simultaneous exposure to 0.1 μg/ml H-7) was “inhibited”.

With C=C(C)[C@@]12O[C@@]3(c4ccccc4)O[C@@H]1[C@@H]1[C@@H]4O[C@]4(CO)[C@@H](O)[C@]4(O)C(=O)C(C)=C[C@H]4[C@@]1(O3)[C@H](C)[C@H]2OC(=O)/C=C/C=C/c1ccccc1 [MEZ, mezerein] the “effect on 72 hr growth” value (T47D cells [1]; T47D cells) was “only marginally altered”, the “72 hr growth suppression in combination with H-7” value (T47D cells [1]; T47D cells, in combination with 0.1 μg/ml of H-7, data not shown) was “No additive or synergistic effect” and the “increase in HLA Class II-DR antigen mRNA levels” value [2] was 1.2 fold. For the same molecule, the “increase in HLA class I antigen mRNA levels” value (HLA Class I) was 1.75 fold, the “Monoclonal Antibody Binding (MFI) MoAb K56” value (MoAb K56 [3]; [7]) was 964* MFI and the “Monoclonal Antibody Binding (MFI) MoAb K56” value (MoAb K56 [3]; [8]) was 1104 MFI. The “Monoclonal Antibody Binding (MFI) MoAb K56” value (MoAb K56 [4]; MEZ 1100 ng/ml, IFN-γ 100 U/ml) was 3002* MFI, the “Monoclonal Antibody Binding (MFI) MoAb L243 (HLA-DR)” value (HLA-DR; MEZ 1100 ng/ml, IFN-γ 100 U/ml) was 9726* MFI and the “Monoclonal Antibody Binding (MFI) MoAb B67.4 (CA19.9)” value (CA19.9; MEZ 1100 ng/ml, IFN-γ 100 U/ml) was 3288* MFI. For the same molecule, the “most effective dose inducing upregulation of BCA 225, HLA Class II antigens, ICAM-1 and c-erbB-2” value (T47D cells [5]; [6]) was 0.1 µg/mL.

With CCCCCCCCCCCCCC(=O)O[C@@H]1[C@@H](C)[C@@]2(O)[C@@H](C=C(CO)C[C@]3(O)C(=O)C(C)=C[C@@H]23)[C@H]2C(C)(C)[C@]12OC(C)=O [TPA, 12-0-tetradecanoyl-phorbol-13-acetate] the “72 hr growth suppression in combination with H-7” value (T47D cells [1]) was “No additive or synergistic effect”, the “effect on 72 hr growth” value (T47D cells [1]; T47D cells) was “suppressed to the greatest degree” and the “increase in HLA Class II-DR antigen mRNA levels” value [2] was “did not increase”. For the same molecule, the “increase in HLA class I antigen mRNA levels” value (HLA Class I) was 1.3 fold and the “most effective dose inducing upregulation of BCA 225, HLA Class II antigens, ICAM-1 and c-erbB-2” value (T47D cells [5]) was 0.1 µg/mL.

B1: IFN-β: recombinant human fibroblast interferon with a serine substituted for a cysteine at position 17 (protein, UniProt P01574 22-187, looked up, variant C17S)
Interferon beta: MSYNLLGFLQRSSNFQSQKLLWQLNGRLEYCLKDRMNFDIPEEIKQLQQFQKEDAALTIYEMLQNIFAIFRQDSSSTGWNETIVENLLANVYHQINHLKTVLEEKLEKEDFTRGKLMSSLHLKRYYGRILHYLKAKEYSHCAWTIVRVEILRNFYFINRLTGYLRN
B1 was tested, and the “increase in HLA Class II-DR antigen mRNA levels” value [2] was 1.2 fold and the “increase in HLA class I antigen mRNA levels” value (HLA Class I) was 2.1 fold.

B2: IFN-γ: recombinant human immune interferon produced in Escherichia coli (protein, UniProt P01579 24-161, looked up)
Interferon gamma: QDPYVKEAENLKKYFNAGHSDVADNGTLFLGILKNWKEESDRKIMQSQIVSFYFKLFKNFKDDQSIQKSVETIKEDMNVKFFNSNKKKRDDFEKLTNYSVTDLNVQRKAIHELIQVMAELSPAAKTGKRKRSQMLFRG
In the case of B2, the “increase in HLA Class II-DR antigen mRNA levels” value [2] is reported as 1.25 fold, the “increase in HLA class I antigen mRNA levels” value (HLA Class I) is reported as 1.8 fold and the “Monoclonal Antibody Binding (MFI) MoAb K56” value (MoAb K56 [3]; [7]) is reported as 1046* MFI. For the same molecule, the “Monoclonal Antibody Binding (MFI) MoAb K56” value (MoAb K56 [3]; [8]) was 1021 MFI, the “Monoclonal Antibody Binding (MFI) MoAb K56” value (MoAb K56 [4]; MEZ 1100 ng/ml, IFN-γ 100 U/ml) was 3126* MFI and the “activity in increasing Class II HLA-DR antigens relative to ADMB” value (HLA-DR) was “approximately 2 ×”. The “Monoclonal Antibody Binding (MFI) MoAb L243 (HLA-DR)” value (HLA-DR; MEZ 1100 ng/ml, IFN-γ 100 U/ml) was 14972* MFI and the “Monoclonal Antibody Binding (MFI) MoAb B67.4 (CA19.9)” value (CA19.9; MEZ 1100 ng/ml, IFN-γ 100 U/ml) was 4970* MFI.
